The supplement of paper PMC10307832

How the values were obtained:
Assay in all cases: relative viability (nuclei count vs DMSO), 5 days (fraction); higher = more cells survive
[1] = tested on: NCI-H1355
How it was run: (§1)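 Dosing by pin tool came one day after lung cancer cell lines were seeded in 1536-well plates, using either one drug or a fixed anchor-drug dose plus five library-drug doses (not always all listed) in √10 steps. After 5 days, nuclei were counted on 4× images. Relative viability is treated-well nuclei count divided by vehicle-well nuclei count, and values are medians of duplicate plates.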

[2] = tested on: RERF-LC-KJ
How it was run: as §1

[3] = tested on: SW 1573
How it was run: as §1

[4] = tested on: HCC-15
How it was run: as §1

[5] = tested on: COR-L23
How it was run: as §1

[6] = tested on: LK-2
How it was run: as §1

[7] = tested on: NCI-H661
How it was run: as §1

[8] = tested on: HCC-827
How it was run: as §1

[9] = tested on: ABC-1
How it was run: as §1

[10] = tested on: SK-MES-1
How it was run: as §1

[11] = tested on: NCI-H2405
How it was run: as §1

[12] = tested on: NCI-H1651
How it was run: as §1

[13] = tested on: NCI-H520
How it was run: as §1

[14] = tested on: H3255
How it was run: as §1

[15] = tested on: PC-3 [JPC-3]
How it was run: as §1

[16] = tested on: NCI-H1650
How it was run: as §1

[17] = tested on: PC-14
How it was run: as §1

[18] = tested on: EKVX
How it was run: as §1

[19] = tested on: NCI-H1437
How it was run: as §1

[20] = tested on: NCI-H1734
How it was run: as §1

[21] = tested on: NCI-H322M
How it was run: as §1

Structure (SMILES): C[C@@H]1CN(CC(=O)Nc2ccc3c(c2)Cc2cccc(-c4cc(=O)cc(N5CCOCC5)o4)c2S3)C[C@H](C)O1 + Nc1ncn([C@H]2C[C@H](O)[C@@H](CO)O2)c(=O)n1 [Decitabine] (partner 2 µM)
- relative viability ([1]; first compound 0.04 µM): 0.389
- relative viability ([1]; first compound 0.1265 µM): 0.338
- relative viability ([1]; first compound 0.4 µM): 0.363
- relative viability ([1]; first compound 4 µM): 0.375
- relative viability ([2]; first compound 0.04 µM): 0.711
- relative viability ([2]; first compound 0.1265 µM): 0.61
- relative viability ([2]; first compound 0.4 µM): 0.678
- relative viability ([2]; first compound 4 µM): 0.556
- relative viability ([3]; first compound 0.04 µM): 0.572
- relative viability ([3]; first compound 0.1265 µM): 0.56
- relative viability ([3]; first compound 0.4 µM): 0.483
- relative viability ([3]; first compound 4 µM): 0.615
- relative viability ([4]; first compound 0.04 µM): 0.621
- relative viability ([4]; first compound 0.1265 µM): 0.594
- relative viability ([4]; first compound 0.4 µM): 0.558
- relative viability ([4]; first compound 4 µM): 0.59
- relative viability ([5]; first compound 0.04 µM): 0.431
- relative viability ([5]; first compound 0.1265 µM): 0.445
- relative viability ([5]; first compound 0.4 µM): 0.569
- relative viability ([5]; first compound 4 µM): 0.612
- relative viability ([6]; first compound 0.04 µM): 0.258
- relative viability ([6]; first compound 0.1265 µM): 0.279
- relative viability ([6]; first compound 0.4 µM): 0.198
- relative viability ([6]; first compound 4 µM): 0.257
- relative viability ([7]; first compound 0.04 µM): 0.496
- relative viability ([7]; first compound 0.1265 µM): 0.534
- relative viability ([7]; first compound 0.4 µM): 0.623
- relative viability ([7]; first compound 4 µM): 0.65
- relative viability ([8]; first compound 0.04 µM): 0.355
- relative viability ([8]; first compound 0.1265 µM): 0.362
- relative viability ([8]; first compound 0.4 µM): 0.418
- relative viability ([8]; first compound 4 µM): 0.382
- relative viability ([9]; first compound 0.04 µM): 0.303
- relative viability ([9]; first compound 0.1265 µM): 0.897
- relative viability ([9]; first compound 0.4 µM): 0.947
- relative viability ([9]; first compound 4 µM): 1.48
- relative viability ([10]; first compound 0.04 µM): 0.356
- relative viability ([10]; first compound 0.1265 µM): 0.368
- relative viability ([10]; first compound 0.4 µM): 0.433
- relative viability ([10]; first compound 4 µM): 0.446
- relative viability ([11]; first compound 0.04 µM): 0.878
- relative viability ([11]; first compound 0.1265 µM): 0.814
- relative viability ([11]; first compound 0.4 µM): 0.728
- relative viability ([11]; first compound 4 µM): 0.803
- relative viability ([12]; first compound 0.04 µM): 0.628
- relative viability ([12]; first compound 0.1265 µM): 0.628
- relative viability ([12]; first compound 0.4 µM): 0.585
- relative viability ([12]; first compound 4 µM): 0.599
- relative viability ([13]; first compound 0.04 µM): 0.613
- relative viability ([13]; first compound 0.1265 µM): 0.484
- relative viability ([13]; first compound 0.4 µM): 0.449
- relative viability ([13]; first compound 4 µM): 0.488
- relative viability ([14]; first compound 0.04 µM): 0.682
- relative viability ([14]; first compound 0.1265 µM): 0.615
- relative viability ([14]; first compound 0.4 µM): 0.558
- relative viability ([14]; first compound 4 µM): 0.509
- relative viability ([15]; first compound 0.04 µM): 0.789
- relative viability ([15]; first compound 0.1265 µM): 0.841
- relative viability ([15]; first compound 0.4 µM): 0.854
- relative viability ([15]; first compound 4 µM): 0.781
- relative viability ([16]; first compound 0.04 µM): 0.492
- relative viability ([16]; first compound 0.1265 µM): 0.44
- relative viability ([16]; first compound 0.4 µM): 0.488
- relative viability ([16]; first compound 4 µM): 0.499
- relative viability ([17]; first compound 0.04 µM): 0.235
- relative viability ([17]; first compound 0.1265 µM): 0.253
- relative viability ([17]; first compound 0.4 µM): 0.192
- relative viability ([17]; first compound 4 µM): 0.167
- relative viability ([18]; first compound 0.04 µM): 0.302
- relative viability ([18]; first compound 0.1265 µM): 0.368
- relative viability ([18]; first compound 0.4 µM): 0.303
- relative viability ([18]; first compound 4 µM): 0.317
- relative viability ([19]; first compound 0.04 µM): 0.648
- relative viability ([19]; first compound 0.1265 µM): 0.591
- relative viability ([19]; first compound 0.4 µM): 0.625
- relative viability ([19]; first compound 4 µM): 0.608
- relative viability ([20]; first compound 0.04 µM): 0.567
- relative viability ([20]; first compound 0.1265 µM): 0.507
- relative viability ([20]; first compound 0.4 µM): 0.474
- relative viability ([20]; first compound 4 µM): 0.574
- relative viability ([21]; first compound 0.04 µM): 0.526
- relative viability ([21]; first compound 0.1265 µM): 0.723
- relative viability ([21]; first compound 0.4 µM): 0.657
- relative viability ([21]; first compound 4 µM): 0.638
